Data published in patent publication US6511961B1, “Cyclic peptides and medicinal use thereof” (Toray Industries, Inc., priority 1997, dated 2003).
Like-named read-outs stand apart in the source and are kept apart here.

Conditions: disulfide bond, 20-membered ring, AgOTf/anisole/TFA, then DMSO/HCl, 50% DMSO-1N HCl, 2 steps

## CC[C@H](C)[C@@H]1NC(=O)[C@@H](NC(C)=O)CSSC[C@@H](C(=O)O)NC(=O)[C@H](CC(C)C)NC(=O)[C@H](Cc2c[nH]cn2)NC(=O)[C@H](CC(=O)O)NC1=O [AcC*IDHLC*]
From Ac-Cys(Acm)-Ile-Asp-His-Leu-Cys(Acm)-OH
  ring closure, yield after HPLC: 68%

## CC(C)C[C@@H]1NC(=O)[C@H](Cc2c[nH]cn2)NC(=O)[C@H](CC(=O)O)NC(=O)[C@H](C)NC(=O)[C@@H](N)CSSC[C@@H](C(=O)O)NC1=O [C*ADHLC*]
From H-Cys(Acm)-Ala-Asp-His-Leu-Cys(Acm)-OH
  ring closure, yield after HPLC: 59%

## CC(C)C[C@@H]1NC(=O)[C@H](Cc2c[nH]cn2)NC(=O)[C@H](CC(=O)O)NC(=O)[C@H](C2CCCCC2)NC(=O)[C@@H](N)CSSC[C@@H](C(=O)O)NC1=O [C*ChgDHLC*]
From H-Cys(Acm)-Chg-Asp-His-Leu-Cys(Acm)-OH
  ring closure, yield after HPLC: 68%

## CC(C)C[C@@H]1NC(=O)[C@H](Cc2c[nH]cn2)NC(=O)[C@H](CCS(C)(=O)=O)NC(=O)[C@H](C2CCCCC2)NC(=O)[C@@H](N)CSSC[C@@H](C(=O)O)NC1=O [C*ChgMet(O2)HLC*]
From H-Cys(Acm)-Chg-Met(O2)-His-Leu-Cys(Acm)-OH
  ring closure, yield after HPLC: 41%

## CC[C@H](C)[C@@H]1NC(=O)[C@H](c2ccccc2)NC(=O)[C@H](CCS(C)(=O)=O)NC(=O)[C@H](C2CCCCC2)NC(=O)[C@@H](N)CSSC[C@@H](C(=O)O)NC1=O [C*ChgMet(O2)PhgIC*]
From H-Cys(Acm)-Chg-Met(O2)-Phg-Ile-Cys(Acm)-OH
  ring closure, yield after HPLC: 3%

## CC(C)C[C@@H]1NC(=O)[C@H](c2ccccc2)NC(=O)[C@H](CCS(C)(=O)=O)NC(=O)[C@H](C2CCCCC2)NC(=O)[C@@H](N)CSSC[C@@H](C(=O)O)NC1=O [C*ChgMet(O2)PhgLC*]
From H-Cys(Acm)-Chg-Met(O2)-Phg-Leu-Cys(Acm)-OH
  ring closure, yield after HPLC: 4%

## CC(C)C[C@@H]1NC(=O)[C@H](c2ccccc2)NC(=O)[C@H](CCS(C)(=O)=O)NC(=O)[C@H](C2CCCCC2)NC(=O)[C@@H](N)CSSC[C@H](C(=O)O)NC1=O [C*ChgMet(O2)PhgLdC*]
From H-Cys(Acm)-Chg-Met(O2)-Phg-Leu-dCys(Acm)-OH
  ring closure, yield after HPLC: 42%

## CC(C)C[C@@H]1NC(=O)[C@@H](Cc2ccccc2)NC(=O)[C@H](CCS(C)(=O)=O)NC(=O)[C@H](C2CCCCC2)NC(=O)[C@@H](N)CSSC[C@@H](C(=O)O)NC1=O [C*ChgMet(O2)dFLC*]
From H-Cys(Acm)-Chg-Met(O2)-dPhe-Leu-Cys(Acm)-OH
  ring closure, yield after HPLC: 26%

## CC(C)C[C@@H]1NC(=O)[C@@H](Cc2c[nH]cn2)NC(=O)[C@H](CCS(C)(=O)=O)NC(=O)[C@H](C2CCCCC2)NC(=O)[C@@H](N)CSSC[C@@H](C(=O)O)NC1=O [C*ChgMet(O2)dHLC*]
From H-Cys(Acm)-Chg-Met(O2)-dHis-Leu-Cys(Acm)-OH
  ring closure, yield after HPLC: 45%

## CC(C)C[C@@H]1NC(=O)[C@@H](c2ccccc2)NC(=O)[C@H](CCS(C)(=O)=O)NC(=O)[C@H](C2CCCCC2)NC(=O)[C@@H](N)CSSC[C@@H](C(=O)O)NC1=O [C*ChgMet(O2)dPhgLC*]
From H-Cys(Acm)-Chg-Met(O2)-dPhg-Leu-Cys(Acm)-OH
  ring closure, yield after HPLC: 8%

## CC(C)C[C@@H]1NC(=O)[C@@H](c2ccccc2)NC(=O)[C@H](CCS(C)(=O)=O)NC(=O)[C@H](C2CCCCC2)NC(=O)[C@@H](N)CSSC[C@H](C(=O)O)NC1=O [C*ChgMet(O2)dPhgLdC*]
From H-Cys(Acm)-Chg-Met(O2)-dPhg-Leu-dCys(Acm)-OH
  ring closure, yield after HPLC: 40%

## CC(C)C[C@@H]1NC(=O)[C@@H](Cc2ccc(O)cc2)NC(=O)[C@H](CCS(C)(=O)=O)NC(=O)[C@H](C2CCCCC2)NC(=O)[C@@H](N)CSSC[C@@H](C(=O)O)NC1=O [C*ChgMet(O2)dYLC*]
From H-Cys(Acm)-Chg-Met(O2)-dTyr-Leu-Cys(Acm)-OH
  ring closure, yield after HPLC: 37%

## CC[C@H](C)[C@@H]1NC(=O)[C@@H](N)CSSC[C@@H](C(=O)O)NC(=O)[C@H](CC(C)C)NC(=O)[C@H](Cc2c[nH]cn2)NC(=O)[C@H](CC(=O)OC)NC1=O [C*ID(OMe)HLC*]
From H-Cys(Acm)-Ile-Asp(OMe)-His-Leu-Cys(Acm)-OH
  ring closure, yield after HPLC: 34%

## CC[C@H](C)[C@@H]1NC(=O)[C@@H](N)CSSC[C@@H](C(=O)OC)NC(=O)[C@H](CC(C)C)NC(=O)[C@H](Cc2c[nH]cn2)NC(=O)[C@H](CC(=O)OC)NC1=O [C*ID(OMe)HLC—OMe*]
From H-Cys(Acm)-Ile-Asp(OMe)-His-Leu-Cys(Acm)-OMe
  ring closure, yield after HPLC: 34%

## CC[C@H](C)[C@@H]1NC(=O)[C@@H](N)CSSC[C@@H](C(=O)O)NC(=O)[C@H](CC(C)C)NC(=O)[C@H](C)NC(=O)[C@H](CC(=O)O)NC1=O [C*IDALC*]
From H-Cys(Acm)-Ile-Asp-Ala-Leu-Cys(Acm)-OH
  ring closure, yield after HPLC: 52%

## CC[C@H](C)[C@@H]1NC(=O)[C@@H](N)CSSC[C@@H](C(=O)O)NC(=O)[C@H](CC(C)C)NC(=O)[C@H](Cc2ccc3ccccc3c2)NC(=O)[C@H](CC(=O)O)NC1=O [C*IDAla(2-Naph)LC*]
From H-Cys(Acm)-Ile-Asp-Ala(2-Naph)-Leu-Cys(Acm)-OH
  ring closure, yield after HPLC: 38%

## CC[C@H](C)[C@@H]1NC(=O)[C@@H](N)CSSC[C@@H](C(=O)O)NC(=O)[C@H](CC(C)C)NC(=O)[C@H](Cc2ccccn2)NC(=O)[C@H](CC(=O)O)NC1=O [C*IDAla(2-Pyr)LC*]
From H-Cys(Acm)-Ile-Asp-Ala(2-Pyr)-Leu-Cys(Acm)-OH
  ring closure, yield after HPLC: 56%

## CC[C@H](C)[C@@H]1NC(=O)[C@@H](N)CSSC[C@@H](C(=O)O)NC(=O)[C@H](CC(C)C)NC(=O)[C@H](CC2CCCCC2)NC(=O)[C@H](CC(=O)O)NC1=O [C*IDChaLC*]
From H-Cys(Acm)-Ile-Asp-Cha-Leu-Cys(Acm)-OH
  ring closure, yield after HPLC: 34%

## CC[C@H](C)[C@@H]1NC(=O)[C@H](Cc2ccccc2)NC(=O)[C@H](CC(=O)O)NC(=O)[C@H]([C@@H](C)CC)NC(=O)[C@@H](N)CSSC[C@@H](C(=O)O)NC1=O [C*IDFIC*]
From H-Cys(Acm)-Ile-Asp-Phe-Ile-Cys(Acm)-OH
  ring closure, yield after HPLC: 37%

## CC[C@H](C)[C@@H]1NC(=O)[C@@H](N)CSSC[C@@H](C(=O)O)NC(=O)[C@H](CC(C)C)NC(=O)[C@H](Cc2ccccc2)NC(=O)[C@H](CC(=O)O)NC1=O [C*IDFLC*]
From H-Cys(Acm)-Ile-Asp-Phe-Leu-Cys(Acm)-OH
  ring closure, yield after HPLC: 50%

## CC[C@H](C)[C@@H]1NC(=O)[C@H](Cc2c[nH]cn2)NC(=O)[C@H](CC(=O)O)NC(=O)[C@H]([C@@H](C)CC)NC(=O)[C@@H](N)CSSC[C@@H](C(=O)O)NC1=O [C*IDHIC*]
From H-Cys(Acm)-Ile-Asp-His-Ile-Cys(Acm)-OH
  ring closure, yield after HPLC: 50%

## CC[C@H](C)[C@@H]1NC(=O)[C@@H](N)CSSC[C@@H](C(=O)O)NC(=O)[C@H](CC(C)C)NC(=O)[C@H](Cc2c[nH]cn2)NC(=O)[C@H](CC(=O)O)NC1=O [C*IDHLC*]
From H-Cys(Acm)-Ile-Asp-His-Leu-Cys(Acm)-OH, 0.48 mM
  ring closure, yield after HPLC: 73%

## CC[C@H](C)[C@@H]1NC(=O)[C@@H](N)CSSC[C@@H](C(N)=O)NC(=O)[C@H](CC(C)C)NC(=O)[C@H](Cc2c[nH]cn2)NC(=O)[C@H](CC(=O)O)NC1=O [C*IDHLC*—NH2]
From H-Cys(Acm)-Ile-Asp-His-Leu-Cys(Acm)-NH2
  ring closure, yield after HPLC: 58%

## CC[C@H](C)[C@@H]1NC(=O)[C@@H](N)CSSC[C@@H](C(=O)OC)NC(=O)[C@H](CC(C)C)NC(=O)[C@H](Cc2c[nH]cn2)NC(=O)[C@H](CC(=O)O)NC1=O [C*IDHLC—OMe*]
From H-Cys(Acm)-Ile-Asp-His-Leu-Cys(Acm)-OMe
  ring closure, yield after HPLC: 35%

## CC[C@H](C)[C@@H]1NC(=O)[C@@H](N)CSSC[C@@H](C(=O)O)NC(=O)[C@H](c2ccccc2)NC(=O)[C@H](Cc2c[nH]cn2)NC(=O)[C@H](CC(=O)O)NC1=O [C*IDHPhgC*]
From H-Cys(Acm)-Ile-Asp-His-Phg-Cys(Acm)-OH
  ring closure, yield after HPLC: 37%

## CC[C@H](C)[C@@H]1NC(=O)[C@@H](N)CSSC[C@@H](C(=O)O)NC(=O)[C@@H](CC(C)C)NC(=O)[C@H](Cc2c[nH]cn2)NC(=O)[C@H](CC(=O)O)NC1=O [C*IDHdLC*]
From H-Cys(Acm)-Ile-Asp-His-dLeu-Cys(Acm)-OH
  ring closure, yield after HPLC: 51%
